Data reported in US12139520B2 (priority 2020, dated 2024).
Bridge positions count the residues as written; N and C are the ends. Square brackets hold non-standard residues; d marks the D form. Peptide text beside a SMILES is read from it. Hyp = O=C(O)[C@@H]1C[C@@H](O)CN1; Cit = NC(=O)NCCC[C@H](N)C(=O)O

Experiments:
hAM1 receptor = hAM1 receptor (Homo sapiens, UniProt O60895+Q16602); test: cAMP assay for in vitro receptor activation, hAM1-R; format: cell-based; settings: cAMP assay, hAM1 receptor; read-out: hAM1R EC50
Chain of hAM1 receptor (Q16602 23-461): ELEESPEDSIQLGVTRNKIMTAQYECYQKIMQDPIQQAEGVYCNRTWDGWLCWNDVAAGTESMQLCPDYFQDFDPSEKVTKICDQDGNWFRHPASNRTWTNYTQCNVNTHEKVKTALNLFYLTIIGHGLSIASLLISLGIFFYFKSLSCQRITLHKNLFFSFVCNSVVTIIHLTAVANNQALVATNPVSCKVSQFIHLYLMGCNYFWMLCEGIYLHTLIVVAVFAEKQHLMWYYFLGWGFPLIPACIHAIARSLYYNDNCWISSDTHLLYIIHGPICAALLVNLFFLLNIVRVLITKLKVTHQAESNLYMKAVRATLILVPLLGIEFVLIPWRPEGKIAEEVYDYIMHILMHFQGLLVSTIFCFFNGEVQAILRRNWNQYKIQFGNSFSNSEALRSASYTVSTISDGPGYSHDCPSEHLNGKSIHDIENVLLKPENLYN
Chain of hAM1 receptor (O60895 43-175 partner): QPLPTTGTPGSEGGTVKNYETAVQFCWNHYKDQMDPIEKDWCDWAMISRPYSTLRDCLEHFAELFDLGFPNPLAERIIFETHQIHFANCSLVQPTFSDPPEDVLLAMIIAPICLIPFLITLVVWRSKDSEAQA
How it was run: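 A subcloned monoclonal line stably expressing hAM1 receptor is thawed and plated at 8000 cells/well. The assay buffer is DPBS with 0.05% casein and 0.5 mM IBMX, and receptor activation is followed by cAMP levels.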

[1] = Physical stability of peptide analogues (Thioflavin T fibrillation); format: physicochemical; settings: maximum ThT signal normalized between hAMY maximum and buffer background; 40° C., shaking, four days; pH 7 per table title
How it was run: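 1 h in 50 mM NaOAc pH 4 / 50 mM NaPi pH 7; + ThT 4 μM final; 40 °C, 700 rpm linear shake 5 min pre-read; ex 450, em 480 nm q10 min × 4 d; LOESS smoothing; max signal normalised to hAMY max vs buffer blank.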

hAMY3 receptor = target: T1, hAMY3 receptor (Homo sapiens, UniProt O60896+P30988); test: cAMP assay for in vitro receptor activation, hAMY3-R; format: cell-based; settings: cAMP assay, hAMY3 receptor; read-out: hAMY3R EC50
T1 sequence (P30988 25-474): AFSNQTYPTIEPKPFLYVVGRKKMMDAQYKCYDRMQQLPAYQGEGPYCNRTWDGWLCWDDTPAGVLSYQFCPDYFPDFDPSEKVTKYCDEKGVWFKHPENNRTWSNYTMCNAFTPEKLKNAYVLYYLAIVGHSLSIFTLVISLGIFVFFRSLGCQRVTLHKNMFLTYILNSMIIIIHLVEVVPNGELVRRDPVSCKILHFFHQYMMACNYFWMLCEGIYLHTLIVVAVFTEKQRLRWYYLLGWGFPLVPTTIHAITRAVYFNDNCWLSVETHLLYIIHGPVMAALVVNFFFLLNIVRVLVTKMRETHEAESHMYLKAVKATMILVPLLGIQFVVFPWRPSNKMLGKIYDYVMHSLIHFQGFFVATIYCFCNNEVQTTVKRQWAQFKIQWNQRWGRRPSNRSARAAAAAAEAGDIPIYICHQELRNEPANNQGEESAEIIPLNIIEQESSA
T1 sequence (O60896 24-148 partner): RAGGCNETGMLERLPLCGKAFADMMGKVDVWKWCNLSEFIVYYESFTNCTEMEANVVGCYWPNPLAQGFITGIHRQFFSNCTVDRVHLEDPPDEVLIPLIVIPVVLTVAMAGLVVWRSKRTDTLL
How it was run: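 Accumulated cAMP was detected by time-resolved FRET one hour after reagent addition. Beforehand, hAMY3-R-overexpressing monoclonal cells (2000/well, DPBS, 0.05% casein, 0.5 mM IBMX) received graded doses of compound for 30 min at room temperature; human amylin served as positive control.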

Row | Structure (SMILES) | EC50 (hAM1 receptor) | Max ThT signal (%) [1] | EC50 (hAMY3 receptor)
1 | CC[C@H](C)[C@H](NC(=O)[C@H](CCC(N)=O)NC(=O)[C@H](CCC(=O)O)NC(=O)[C@H](C)NC(=O)[C@H](CC(C)C)NC(=O)[C@H](CCCNC(N)=O)NC(=O)[C@H](CCC(N)=O)NC(=O)[C@@H](NC(=O)[C@@H](NC(=O)[C@@H]1CSSC[C@H](NC(=O)[C@@H](N)CCCCN)C(=O)N[C@@H](CC(N)=O)C(=O)N[C@@H]([C@@H](C)O)C(=O)N[C@@H](C)C(=O)N[C@@H]([C@@H](C)O)C(=O)N1)[C@@H](C)O)C(C)C)C(=O)N[C@@H](Cc1ccc(O)cc1)C(=O)N[C@@H](CCC(N)=O)C(=O)N[C@@H](Cc1ccccc1)C(=O)N[C@H](C(=O)N[C@@H](CC(=O)O)C(=O)N[C@@H](CCCCN)C(=O)N[C@@H](CC(=O)O)C(=O)N[C@@H](CCCCN)C(=O)N[C@@H](CC(=O)O)C(=O)N[C@@H](CC(N)=O)C(=O)N[C@H](C(=O)N[C@@H](CO)C(=O)N1CCC[C@H]1C(=O)N1CCC[C@H]1C(=O)N[C@H](C(=O)N[C@@H](CC(N)=O)C(=O)N[C@H](C(=O)NCC(=O)N[C@@H](CO)C(=O)N[C@@H](CC(N)=O)C(=O)NCC(=O)N1C[C@H](O)C[C@H]1C(N)=O)C(C)C)[C@@H](C)O)C(C)C)[C@@H](C)O [compound 266] (H-KCNTATCTVQ[Cit]LAEQIYQFTDKDKDNVSPPTNVGSNG[Hyp]-NH2; disulfide 2-7; N-terminus assumed) | > 5000 nM | 20.900% | 0.053 nM
2 | CC[C@H](C)[C@H](NC(=O)[C@H](CCC(N)=O)NC(=O)[C@H](Cc1c[nH]cn1)NC(=O)[C@H](C)NC(=O)[C@H](CC(C)C)NC(=O)[C@H](CCCNC(N)=O)NC(=O)[C@H](CCC(N)=O)NC(=O)[C@@H](NC(=O)[C@@H](NC(=O)[C@@H]1CSSC[C@H](NC(=O)[C@@H](N)CCCCN)C(=O)N[C@@H](CC(N)=O)C(=O)N[C@@H]([C@@H](C)O)C(=O)N[C@@H](C)C(=O)N[C@@H]([C@@H](C)O)C(=O)N1)[C@@H](C)O)C(C)C)C(=O)N[C@@H](Cc1ccc(O)cc1)C(=O)N[C@@H](CCC(N)=O)C(=O)N[C@@H](Cc1ccccc1)C(=O)N[C@H](C(=O)N[C@@H](CC(=O)O)C(=O)N[C@@H](CCCCN)C(=O)N[C@@H](CC(=O)O)C(=O)N[C@@H](CCCCN)C(=O)N[C@@H](CC(=O)O)C(=O)N[C@@H](CC(N)=O)C(=O)N[C@H](C(=O)N[C@@H](C)C(=O)N1CCC[C@H]1C(=O)N1CCC[C@H]1C(=O)N[C@H](C(=O)N[C@@H](CC(N)=O)C(=O)N[C@H](C(=O)NCC(=O)N[C@@H](CO)C(=O)N[C@@H](CC(N)=O)C(=O)NCC(=O)N1C[C@H](O)C[C@H]1C(N)=O)C(C)C)[C@@H](C)O)C(C)C)[C@@H](C)O [compound 268] (H-KCNTATCTVQ[Cit]LAHQIYQFTDKDKDNVAPPTNVGSNG[Hyp]-NH2; disulfide 2-7; N-terminus assumed) | > 5000 nM | 8.850% | 0.014 nM
3 | CC[C@H](C)[C@H](NC(=O)[C@H](CCC(N)=O)NC(=O)[C@H](Cc1c[nH]cn1)NC(=O)[C@H](C)NC(=O)[C@H](CC(C)C)NC(=O)[C@H](CCCNC(N)=O)NC(=O)[C@H](CCC(N)=O)NC(=O)[C@@H](NC(=O)[C@@H](NC(=O)[C@@H]1CSSC[C@H](NC(=O)CN)C(=O)N[C@@H](CCCNC(=N)N)C(=O)N[C@@H]([C@@H](C)O)C(=O)NCC(=O)N[C@@H]([C@@H](C)O)C(=O)N1)[C@@H](C)O)C(C)C)C(=O)N[C@@H](Cc1ccc(O)cc1)C(=O)N[C@@H](CCC(N)=O)C(=O)N[C@@H](Cc1ccccc1)C(=O)N[C@H](C(=O)N[C@@H](CC(=O)O)C(=O)N[C@@H](CCCCN)C(=O)N[C@@H](CC(=O)O)C(=O)N[C@@H](CCCCN)C(=O)N[C@@H](CC(=O)O)C(=O)N[C@@H](CC(N)=O)C(=O)N[C@H](C(=O)N[C@@H](C)C(=O)N1CCC[C@H]1C(=O)N[C@@H](CCCNC(=N)N)C(=O)N[C@H](C(=O)N[C@@H](CC(N)=O)C(=O)N[C@H](C(=O)NCC(=O)N1CCC[C@H]1C(=O)N[C@@H](CC(N)=O)C(=O)NCC(=O)N[C@@H](Cc1ccc(O)cc1)C(N)=O)C(C)C)[C@@H](C)O)C(C)C)[C@@H](C)O [compound 269] (H-GCRTGTCTVQ[Cit]LAHQIYQFTDKDKDNVAPRTNVGPNGY-NH2; disulfide 2-7; N-terminus assumed) | > 5000 nM | 34.500% | 0.005 nM
4 | CC[C@H](C)[C@H](NC(=O)[C@H](CCC(N)=O)NC(=O)[C@H](Cc1c[nH]cn1)NC(=O)[C@H](C)NC(=O)[C@H](CC(C)C)NC(=O)[C@H](CCCNC(N)=O)NC(=O)[C@H](CCC(N)=O)NC(=O)[C@@H](NC(=O)[C@@H](NC(=O)[C@@H]1CSSC[C@H](NC(=O)[C@@H](N)CCCCN)C(=O)N[C@@H](CC(N)=O)C(=O)N[C@@H]([C@@H](C)O)C(=O)N[C@@H](C)C(=O)N[C@@H]([C@@H](C)O)C(=O)N1)[C@@H](C)O)C(C)C)C(=O)N[C@@H](Cc1ccc(O)cc1)C(=O)N[C@@H](CCC(N)=O)C(=O)N[C@@H](Cc1ccccc1)C(=O)N[C@H](C(=O)N[C@@H](CC(=O)O)C(=O)N[C@@H](CCCCN)C(=O)N[C@@H](CC(=O)O)C(=O)N[C@@H](CCCCN)C(=O)N[C@@H](CC(=O)O)C(=O)N[C@@H](CC(N)=O)C(=O)N[C@H](C(=O)N[C@@H](C)C(=O)N1CCC[C@H]1C(=O)N[C@@H](CCCNC(=N)N)C(=O)N[C@H](C(=O)N[C@@H](CCC(=O)O)C(=O)N[C@H](C(=O)NCC(=O)N[C@@H](CO)C(=O)N[C@@H](CC(N)=O)C(=O)NCC(=O)N[C@@H](Cc1ccc(O)cc1)C(N)=O)C(C)C)[C@@H](C)O)C(C)C)[C@@H](C)O [compound 272] (H-KCNTATCTVQ[Cit]LAHQIYQFTDKDKDNVAPRTEVGSNGY-NH2; disulfide 2-7; N-terminus assumed) | > 5000 nM | 16.750% | 0.009 nM
5 | CC[C@H](C)[C@H](NC(=O)[C@H](CCC(N)=O)NC(=O)[C@H](Cc1c[nH]cn1)NC(=O)[C@H](C)NC(=O)[C@H](CC(C)C)NC(=O)[C@H](CCCNC(N)=O)NC(=O)[C@H](CCC(N)=O)NC(=O)[C@@H](NC(=O)[C@@H](NC(=O)[C@@H]1CSSC[C@H](NC(=O)CN)C(=O)N[C@@H](CCCNC(=N)N)C(=O)N[C@@H]([C@@H](C)O)C(=O)NCC(=O)N[C@@H]([C@@H](C)O)C(=O)N1)[C@@H](C)O)C(C)C)C(=O)N[C@@H](Cc1ccc(O)cc1)C(=O)N[C@@H](CCC(N)=O)C(=O)N[C@@H](Cc1ccccc1)C(=O)N[C@H](C(=O)N[C@@H](CC(=O)O)C(=O)N[C@@H](CCCCN)C(=O)N[C@@H](CC(=O)O)C(=O)N[C@@H](CCCCN)C(=O)N[C@@H](CC(=O)O)C(=O)N[C@@H](CC(N)=O)C(=O)N[C@H](C(=O)N[C@@H](C)C(=O)N1CCC[C@H]1C(=O)N[C@@H](CCCNC(=N)N)C(=O)N[C@H](C(=O)N[C@@H](CC(N)=O)C(=O)N[C@H](C(=O)NCC(=O)N1CCC[C@H]1C(=O)N[C@@H](CCC(N)=O)C(=O)NCC(=O)N[C@@H](Cc1ccc(O)cc1)C(N)=O)C(C)C)[C@@H](C)O)C(C)C)[C@@H](C)O [compound 273] (H-GCRTGTCTVQ[Cit]LAHQIYQFTDKDKDNVAPRTNVGPQGY-NH2; disulfide 2-7; N-terminus assumed) | > 5000 nM | 29.000% | 0.021 nM
6 | CC[C@H](C)[C@H](NC(=O)[C@H](CCC(N)=O)NC(=O)[C@H](Cc1c[nH]cn1)NC(=O)[C@H](C)NC(=O)[C@H](CC(C)C)NC(=O)[C@H](CCCNC(N)=O)NC(=O)[C@H](CCC(N)=O)NC(=O)[C@@H](NC(=O)[C@@H](NC(=O)[C@@H]1CSSC[C@H](NC(=O)CN)C(=O)N[C@@H](CCCNC(=N)N)C(=O)N[C@@H](Cc2ccccc2)C(=O)NCC(=O)N[C@@H]([C@@H](C)O)C(=O)N1)[C@@H](C)O)C(C)C)C(=O)N[C@@H](Cc1ccc(O)cc1)C(=O)N[C@@H](CCC(N)=O)C(=O)N[C@@H](Cc1ccccc1)C(=O)N[C@H](C(=O)N[C@@H](CC(=O)O)C(=O)N[C@@H](CCCCN)C(=O)N[C@@H](CC(=O)O)C(=O)N[C@@H](CCCCN)C(=O)N[C@@H](CC(=O)O)C(=O)N[C@@H](CC(N)=O)C(=O)N[C@H](C(=O)N[C@@H](C)C(=O)N1CCC[C@H]1C(=O)N[C@@H](CCCNC(=N)N)C(=O)N[C@H](C(=O)N[C@@H](CCCCN)C(=O)N[C@H](C(=O)N[C@@H](CO)C(=O)N1CCC[C@H]1C(=O)N[C@@H](CC(N)=O)C(=O)NCC(=O)N1C[C@H](O)C[C@H]1C(N)=O)[C@@H](C)CC)[C@@H](C)O)C(C)C)[C@@H](C)O [compound 275] (H-GCRFGTCTVQ[Cit]LAHQIYQFTDKDKDNVAPRTKISPNG[Hyp]-NH2; disulfide 2-7; N-terminus assumed) | > 5000 nM | 19.850% | 0.02 nM
